# Experimental data: patent publication US20260041780A1, “ANTIBODY-DRUG CONJUGATE AND USE THEREOF” (MINGHUI PHARMACEUTICAL (HANGZHOU) LIMITED, priority 2022, published 2026)
# pIC50: −log10 of the molar value.
# How the values were obtained:
# Test in all cases: Inhibition of in vitro proliferation of tumor cells (CellTiter Glo)
# Type in all cases: cell-based, human
# [1] = system: Calu-6; settings: Calu-6, 120 h incubation
# Description: (§1) Human-derived tumor cells in logarithmic growth phase were taken, trypsin-digested and resuspended using fresh complete culture medium, counted and adjusted to an appropriate concentration, and added into 96-well cell culture plate at 100 μL/well. The cell culture plate was placed in a 37° C., 5% CO2 incubator and incubated overnight. On the next day, different concentrations of ADC samples to be tested (with the highest final concentration of 1 μM, and 4-fold gradient dilution) or buffer control were added to the corresponding wells of the cell culture plate, and continued to be incubated in a CO2 incubator for 120 h. After equilibrated to room temperature, the test plate was analyzed by using a CellTiter Glo assay kit (Promega, G7558) and a multifunctional enzyme labeling instrument (Enspire 2300, PerkinElmer) to detect luminescence readings. The cellular inhibition rate was calculated according to the following equation: inhibition rate (%)=(1−(RLUADC−RLUblank)/(RLUbuffer−RLUblank))×100%, wherein, RLU represents Relative Luminescence Units. XLFit was utilized to plot the pharmacodynamic inhibition rate curve and to calculate the IC50 values (see Tables 4 and 5).
# [2] = system: HepG2; settings: HepG2, 120 h incubation
# Description: as §1
# [3] = system: NCI-H1975; settings: NCI-H1975, 120 h incubation
# Description: as §1
# [4] = system: NCI-N87; settings: NCI-N87, 120 h incubation
# Description: as §1
substance,measurement,setting,value
Control ADC2: antibody Ifinatamab conjugated with linker-payload MC-GGFG-DXd,pIC50,[1],6.90
same,pIC50,[2],6.66
same,pIC50,[3],6.19
same,pIC50,[4],6.54
